Tests used:
STZ mice [1] = experiment: Blood glucose in STZ mouse pancreatic islet β-cell injury model (Example 3); assay type: in vivo; settings: STZ ICR mice; single agent 0.1 g/kg per day by gavage, two weeks; 1 h after last administration; mean ± SD
Excerpt: Effects of limonoid compound, acarbose or combination thereof on blood glucose in mouse pancreatic islet (β-cell injury model In this example, a mouse pancreatic islet (β-cell injury model was established by modeling ICR mice with streptozotocin (STZ) (Li Nan et al., Protective effect of pine pollen on kidney damage in diabetic nephropathy mice, Science and Technology Review, 2014, 32 (4/5): 95-99), and used to complete the evaluation of hypoglycemic effect in animals (this model could simulate pancreatic islet (β-cell damage state of type I and type II diabetics). The limonoid compound was selected from the group consisting of […], and […] glycoside, and acarbose single administration group, […] single administration group, […] single administration group, […] glycoside singe administration group, and respective combination thereof with acarbose administration groups were set. Conditions of experimental feeding: ICR mice (20±2 g), aged 6 weeks, purchased from Zhejiang Academy of Medical Sciences, and subjected to experimental feeding after 7 days of preliminary feeding. […] The data were expressed as mean and standard deviation. The data before and after were analyzed by t-test, and P<0.05 was considered statistically significant.

STZ mice [2] = experiment: Blood glucose in mouse type II diabetes model with pancreatic islet damage and obesity, STZ plus high-fat diet (Example 5); assay type: in vivo; settings: STZ + high-fat diet ICR mice; single agent 0.5 g/kg per day by gavage, two weeks; 1 h after last administration; mean ± SD
Excerpt: Effects of limonoid compound, acarbose or combination thereof on blood glucose in mouse type II diabetes model with pancreatic islet damage and obesity
In this example, a mouse model of type II diabetes with pancreatic islet damage and obesity was established by multiple modeling ICR mice with a small dose of streptozotocin (STZ), following with continuous high-fat diets (referring to literature: Zhang Jiyuan et al, Study on the effect of three plant extracts on improving glucose and lipid metabolism in type 2 diabetic mice, Food and Machinery, 2016, 32 (12): 142-147). […]
Experimental grouping: 15 male mice were randomly selected as the normal control group, and the remaining mice were subjected to a high-fat diet (high-fat diet formula: cholesterol 1%, egg yolk powder 10%, lard oil 10%, and basic feed 79%, for establishing an obesity mouse model) for consecutive 4 weeks and intraperitoneal injection of STZ at a dose of 35mg/kg for three consecutive days. After one week, the mice were subject to 24 hours of fasting and water deprivation, their fasting blood glucose was measured, and the mice with a blood glucose level of 15 to 25 mmol/L were selected and undifferentiatedly grouped and used in the experiment, continuously subjected to the high-fat diet, 15 mice in each group, and subjected to blood sampling and detection of indicators after 2 weeks of administration. […]

`C[C@H]1O[C@H](O[C@H]2[C@H](O)[C@@H](O)[C@@H](O[C@H]3[C@H](O)[C@@H](O)C(O)O[C@@H]3CO)O[C@@H]2CO)[C@H](O)[C@@H](O)[C@@H]1N[C@H]1C=C(CO)[C@@H](O)[C@H](O)[C@H]1O` (some centres unmarked) [Acarbose, acarbose] gave a Blood glucose value (STZ mice [1]) of 20.6 ± 4.5 mmol/L and a Blood glucose value (STZ mice [2]) of 15.7 ± 3.0 mmol/L.

From patent US20220296566A1, “COMBINATION PRODUCT CONTAINING LIMONOID COMPOUND AND ALPHA-GLUCOSIDASE INHIBITOR” (ZHEJIANG YANGSHENGTANG INSTITUTE OF NATURAL MEDICATION CO., …, priority 2019, published 2022)
